Results reported in patent publication US7446079B2, “Perfumes for rinse-off systems” (Givaudan Fragrances Corporation, priority 2005, dated 2008).
Several values for one entry are separate records, joined by “and”; a condition that tells them apart may be missing. Equal entries are not always repeated. Where two headings read alike, the source gives them in different places.

Assays:
[1] = GC-MS headspace release profile of Tropical Fruit perfume in shampoo, 1/100 dilution in water; type: physicochemical
Protocol: A 10 gram sample of formulation and fragrance was added to an empty 1000 ml pyrex beaker. This beaker was then filled with 1000 ml of 120 F tap water. Beaker with diluted shampoo sample was then immediately placed into a semi-enclosed plexiglass chamber.
Headspace Sampling: Once beaker was placed into chamber a Carboxan SPME field fiber was held at the top-side opening of the chamber over the beaker containing the sample. […] […] Top of plexiglass chamber was held open for entire 5 minutes of headspace sampling.

[2] = in water, cited from earlier work; for exp ODT (ppb) water: experimental values from the Booleans database

| SMILES | GC Abundance ([1]; headspace at 20 seconds) | GC Abundance ([1]; headspace at 30 seconds) | GC Abundance ([1]; headspace at 40 seconds) | GC Abundance ([1]; headspace at 50 seconds) | ODT (ppb) ([2]; Table 9) | ODT (ppb) ([2]; Table 11) | ODT (ppb) ([2]; Table 13) | other results |
| --- | --- | --- | --- | --- | --- | --- | --- | --- |
| C=CC(C)(O)CCC=C(C)CC (mixture of isomers) [ETHYL LINALOOL] | 5000 | 10000 | 10000 | 10000 | – | – | – | – |
| CC=Cc1ccc(O)c(OC)c1 [1-Hydroxy-2-methoxy-4-propenylbenzene] | – | – | – | – | – | – | – | exp ODT (ppb) water [2]: 30-40 ppb |
| CCCCCCCC=O [1-Octanal] | – | – | – | – | – | – | – | exp ODT (ppb) water [2]: 30 ppb |
| COc1cc(C=O)ccc1O [4-Hydroxy-3-methoxybenzaldehyde] | – | – | – | – | – | – | – | exp ODT (ppb) water [2]: 25-58 ppb and 20-200 ppb |
| Cc1ccc(C(C)C)c(O)c1 [5-Methyl-2-isopropylphenol] | – | – | – | – | – | – | – | exp ODT (ppb) water [2]: 400 ppb |
| CC(C)=CCCC(C)CCCC(C)C=O (stereo not shown) [ADOXAL, 2,6,10-Trimethyl-9-undecenal] | – | – | 300 | 3000 | – | – | – | – |
| CCCCCC1CCC(=O)O1 (stereo not shown) [ALDEHYDE C-18] | 2000 | 2000 | 4000 | 4000 | – | – | – | – |
| C=CCOC(=O)CCCCC [ALLYL CAPROATE] | – | – | – | – | less than 50 ppb | less than 50 ppb | less than 50 ppb | – |
| C=CCOC(=O)CCC1CCCCC1 [ALLYL CYCLOHEXYL PROPIONATE] | – | – | 7000 | 10000 | less than 50 ppb | less than 50 ppb | less than 50 ppb | – |
| C=CCOC(=O)CCCCCC [ALLYL HEPTOATE] | 4000 | 10000 | 12000 | 12000 | – | – | – | – |
| CC1(C)CCC[C@]2(C)[C@H]3CCO[C@]3(C)CC[C@@H]12 [AMBROXAN] | – | – | – | 1000 | – | – | – | – |
| CC/C(=C\CC1CC=C(C)C1(C)C)CO (stereo not shown) [BACDANOL] | – | – | 100 | 5000 | – | – | – | – |
| CCCCOC(C)=O [Butyl acetate] | – | – | – | – | – | – | – | exp ODT (ppb) water [2]: 44-88 ppb |
| CC/C=C\CCO [CIS-3-HEXEN-1-OL] | 14000 | 14000 | 14000 | 14000 | – | – | – | – |
| CC/C=C\CCOC(=O)c1ccccc1O [CIS-3-HEXENYL SALICYLATE] | – | – | – | – | less than 50 ppb | less than 50 ppb | less than 50 ppb | – |
| CC(C)=CCCC(C)CCO (stereo not shown) [CITRONELLOL AJ, FCC, CITRONELLOL] | 7000 | 7000 | 7000 | 7000 | – | – | – | – |
| CC(C)=CCCC(C)CC#N (stereo not shown) [CITRONELLYL NITRILE] | – | – | – | – | less than 50 ppb | less than 50 ppb | less than 50 ppb | – |
| C=CCOC(=O)COC1CCCCC1 [CYCLOGALBANATE] | – | – | – | – | less than 50 ppb | less than 50 ppb | less than 50 ppb | – |
| CC1=CCC(/C=C\C(C)C(C)O)C1(C)C (stereo not shown) [EBANOL] | – | – | – | – | less than 50 ppb | less than 50 ppb | less than 50 ppb | – |
| CCOC(=O)CC(C)=O [ETHYL ACETOACETATE] | – | – | – | – | less than 50 ppb | less than 50 ppb | less than 50 ppb | – |

More lines, main results first:

| GC Abundance ([1]; headspace at 20 seconds) | GC Abundance ([1]; headspace at 30 seconds) | GC Abundance ([1]; headspace at 40 seconds) | GC Abundance ([1]; headspace at 50 seconds) | SMILES | ODT (ppb) ([2]; Table 9) | ODT (ppb) ([2]; Table 11) | ODT (ppb) ([2]; Table 13) | other results |
| --- | --- | --- | --- | --- | --- | --- | --- | --- |
| 12000 | 17000 | 18000 | 18000 | CC(=O)OCc1ccccc1 [BENZYL ACETATE] | – | – | – | – |
| – | – | 50 | 100 | OCc1ccccc1 [BENZYL ALCOHOL] | – | – | – | – |
| 2000 | 6000 | 6000 | 6000 | CCC(=O)OCc1ccccc1 [BENZYL PROPIONATE] | – | – | – | – |
| – | – | – | 1000 | Cc1ccc2c(c1)OCC(=O)CO2 [CALONE] | – | – | – | – |
| 5000 | 14000 | 14000 | 14000 | CC/C=C\CCOC(C)=O [CIS-3-HEXENYL ACETATE] | less than 50 ppb | less than 50 ppb | less than 50 ppb | – |
| – | – | – | 1000 | CC=CC(=O)C1=C(C)C=CCC1(C)C [DAMASCENONE, 1-(2,6,6-Trimethylcyclohexa-1,3-dienyl)-2-buten-1-one] | – | – | – | exp ODT (ppb) water [2]: 0.002 ppb |
| 3000 | 3000 | 3000 | 3000 | CCC(C)(O)CCC=C(C)C (stereo not shown) [DIHYDROLINALOOL] | – | – | – | – |
| 15000 | 15000 | 15000 | 15000 | C=CC(C)CCCC(C)(C)O (stereo not shown) [DIHYDROMYRCENOL] | – | – | – | GC Abundance ([1]; headspace at 10 seconds): 500 |
| – | 2000 | 8000 | 8000 | CC(=O)OC(C)(C)Cc1ccccc1 [DIMETHYL BENZYL CARBINYL ACETATE] | – | – | – | – |
| 2800 | 2800 | 2000 | 800 | CCCC(=O)OCC [ETHYL BUTYRATE] | less than 50 ppb | less than 50 ppb | less than 50 ppb | GC Abundance ([1]; headspace at 10 seconds): 2800; exp ODT (ppb) water [2]: 1 ppb |
